Values joined by “and” are separate entries in the source; they are usually repeats but may differ in a detail not shown here. Identical values can stand only once. “Also recorded” adds a separate entry of the source.
Legend:
[1] = test system: model of ischemia reperfusion injury (IRI); assay: Unilateral ischemia reperfusion injury (IRI) model: kidney collagen 1A1 and collagen 3A1 expression; assay type: in vivo, mouse; conditions: for Collagen 3A1 (Normalized Expression) Mean / Collagen 1A1 (Normalized Expression) Mean: group mean; for Collagen 1A1 (Normalized Expression) / Collagen 3A1 (Normalized Expression): individual animals
Procedure: A model of ischemia reperfusion injury (IRI) is created in the mouse through unilateral or bilateral clamping of kidney arteries, which leads to tubule damage, inflammation, and fibrosis. Kidney dysfunction can occur either early (<5 days) or late (>7 days) in this model, with the early time points useful to test candidate agents for the treatment of acute kidney injury, and the later time points useful to model chronic fibrosis.
Anti-miR-21 compounds were tested in the unilateral IRI model. Unilateral IRI was induced for a period of 30 minutes. Treatment groups were as follows: sham IRI procedure; IRI with PBS administered subcutaneously; IRI with anti-miR-21 compound 25070 administered intraperitoneally at a dose of 20 mg/kg; the 2′-fluoro/2′-MOE modified anti-miR-21 25919 administered intraperitoneally at a dose of 20 mg/kg; and a 2′-fluoro/2′ modified mismatch anti-miR-21 (having three mismatches to the sequence of miR-21) 25319 administered intraperitoneally at a dose of 20 mg/kg. PBS or anti-miR compound was administered on days 5, 6, and 7 following IRI, and animals were sacrificed 14 days after IRI. As anti-miR compound is administered 5 days following the injury to the kidney, or later, when fibrosis has already occurred to some extent, this treatment regimen is considered a therapeutic regimen, rather than a prophylactic regimen.
Kidney tissue was collected for analysis of collagen 1A1 and collagen 3A1 expression (shown in Table 0), and collagen area fraction (shown in Table P).
A similar study was performed with the same treatment groups and additional days of treatment. In this study, treatments were administered intraperitoneally at days 5, 6, 7, 14, and 21 following the IRI procedure Animals were sacrificed on Day 27, and kidney tissue was collected for analysis of collagen 1A1 and collagen 3A1 expression, as well as collagen area fraction.
In order to assess the flexibility of administration of the anti-miR-21 compound 25070, the activity of the compound in the 14 day study above, where anti-miR-21 was administered at […] following the IRI procedure, to a different 14 day study where anti-miR-21 was administered intraperitoneally at days 3, 5, and 7 following the IRI procedure.

[2] = test system: UUO model of kidney fibrosis; assay: UUO model: collagen area fraction of kidney tissue (picrosirius red histology); assay type: in vivo, mice; conditions: Table N, 25070 20 mg/kg s.c.
Procedure: Control treatment groups included UUO only (sham) and UUO with PBS administered subcutaneously. An additional control group included UUO with Tween-MC/20 carrier perorally. 25070 administered subcutaneously at dose of 20 mg/kg at 5 days prior to, 2 days prior to, and 3 days after, the UUO procedure. Irbesartan was administered perorally on daily on days 0 through 7 following the UUO procedure. Animals were sacrificed on Day 10 following the UUO procedure. Kidney tissue was collected for measurement of collagen 1A1 and collagen 3A1 expression.
The ‘collagen area fraction’ is measured histologically through quantitative image processing of the area of kidney tissue that is stained red by the picrosirius red stain; the percent detected as red is normalized by the area of kidney section.

miR-21 = miR-21 luciferase sensor assay in Hela cells; assay type: cell-based
[3] = Table O, unilateral IRI, 20 mg/kg intraperitoneally on days 5, 6, 7, day 14, IRI-PBS mean 63.9
[4] = Table O, unilateral IRI, 20 mg/kg intraperitoneally on days 5, 6, 7, day 14, IRI-PBS mean 85.1
[5] = Table O, unilateral IRI 30 minutes, 20 mg/kg intraperitoneally on days 5, 6, 7 (therapeutic), sacrifice 14 days after IRI, 20 mg/kg
[6] = IRI mouse, 14 day study, dosing Day 5, 6, 7, relative to sham
[7] = IRI mouse, 14 day study, intraperitoneal dosing Day 3, 5, 7, relative to sham
[8] = unilateral IRI mouse, 20 mg/kg intraperitoneally on days 5, 6, 7, 14, and 21, kidney, sacrificed Day 27
[9] = unilateral IRI mouse, 20 mg/kg intraperitoneally on days 5, 6, 7, 14, and 21, kidney, sacrificed Day 27, 20 mg/kg
[10] = 4 nM oligonucleotide, Hela cells
[11] = 20 nM oligonucleotide, Hela cells
[12] = 100 nM oligonucleotide, Hela cells
[13] = 500 nM oligonucleotide, Hela cells, two experimental replicates
[14] = .16 nM oligonucleotide, Hela cells
[15] = .8 nM oligonucleotide, Hela cells

| Sequence | Collagen 3A1 (Normalized Expression) Mean [1, 3] | Collagen 1A1 (Normalized Expression) Mean [1, 4] | Collagen 1A1 (Normalized Expression) [1, 5] | Collagen 3A1 (Normalized Expression) [1, 5] | Collagen 1A1 (Normalized Expression) Mean [1, 8] | Collagen 3A1 (Normalized Expression) Mean [1, 8] | Collagen 1A1 (Normalized Expression) [1, 9] | Collagen 3A1 (Normalized Expression) [1, 9] | luciferase value normalized to beta-galactosidase activity (miR-21; [10]) | luciferase value normalized to beta-galactosidase activity (miR-21; [11]) | luciferase value normalized to beta-galactosidase activity (miR-21; [12]) | luciferase value normalized to beta-galactosidase activity (miR-21; [13]) | luciferase value normalized to beta-galactosidase activity (miR-21; [14]) | luciferase value normalized to beta-galactosidase activity (miR-21; [15]) | other results |
| --- | --- | --- | --- | --- | --- | --- | --- | --- | --- | --- | --- | --- | --- | --- | --- |
| AECSATCSAGTCSTGAUSAAGCSTAE (ACATCAGTCTGATAAGCTA; modified nucleosides, phosphorothioate linkages, chemistry not fully specified) [Compound 25070] | 34.2 | 50.2 | 81.7 and 57.4 and 37.9 and 55.3 and 22.3 and 52.4 and 53.0 and 41.5 | 57.8 and 18.1 and 39.3 and 36.0 and 20.6 and 38.6 and 33.4 and 29.7 | 31.4 | 20.8 | 26.4 and 37.4 and 41.9 and 36.8 and 14.1 and 27.7 and 29.4 and 37.6 | 16.4 and 27.0 and 28.5 and 19.6 and 11.3 and 19.3 and 21.4 and 23.1 | 99 | 128 | 132 | 165 | 65 | 87 | reduction of collagen expression (collagen 1A1 or collagen 3A1, significance) ([1]; IRI, 14 day studies, either dosing schedule (days 5, 6, 7 or days 3, 5, 7)): statistically significant reduction of collagen expression with either dosing schedule; Collagen 1A1 (Normalized Expression) Mean [1, 6]: 24.5; Collagen 3A1 (Normalized Expression) Mean [1, 6]: 26.2; Collagen 1A1 (Normalized Expression) Mean [1, 7]: 27.2; Collagen 3A1 (Normalized Expression) Mean [1, 7]: 27.9; Collagen 1A1 (Normalized Expression) [1, 6]: 21.7 and 22.8 and 15.8 and 27.6 and 27.1 and 29.3 and 10.8 and 21.5 and 29.9 and 35.0 and 28.3 and 24.2; Collagen 3A1 (Normalized Expression) [1, 6]: 24.9 and 26.3 and 13.6 and 25.4 and 32.7 and 29.9 and 9.7 and 22.2 and 33.2 and 35.4 and 32.3 and 28.9; Collagen 1A1 (Normalized Expression) [1, 7]: 37.5 and 21.9 and 35.3 and 26.0 and 24.9 and 16.8 and 30.8 and 34.3 and 36.8 and 9.4 and 28.0 and 24.6; Collagen 3A1 (Normalized Expression) [1, 7]: 35.3 and 23.6 and 32.1 and 25.1 and 31.3 and 18.6 and 30.3 and 37.6 and 40.0 and 9.5 and 23.2 and 28.7; Collagen Area Fraction (%) Mean ([2]; group mean, irbesartan PO, Day 10, UUO-PBS 11.1, Tween/MC vehicle 8.0): 8.0%; Collagen Area Fraction (%) ([2]; individual animals, irbesartan PO daily days 0-7, Day 10, picrosirius red, 20 mg/kg): 7.632% and 9.937% and 8.015% and 6.611% and 6.319% and 11.272% and 6.803% and 7.405%; inhibition of miR-21 activity in the luciferase assay (in words) (miR-21; Hela cells): inhibition of miR-21 in a dose-dependent manner; also recorded: potent inhibitor of miR-21 activity; fold change in luciferase value relative to the mock treatment (miR-21; concentration of anti-miR compound 0.2 (unit not given)): 1.04 fold change; fold change in luciferase value relative to the mock treatment (miR-21; concentration of anti-miR compound 0.6 (unit not given)): 1.01 fold change; fold change in luciferase value relative to the mock treatment (miR-21; concentration of anti-miR compound 1.9 (unit not given)): 1.14 fold change; fold change in luciferase value relative to the mock treatment (miR-21; concentration of anti-miR compound 5.6 (unit not given)): 6.22 fold change; fold change in luciferase value relative to the mock treatment (miR-21; concentration of anti-miR compound 16.7 (unit not given)): 11.28 fold change; fold change in luciferase value relative to the mock treatment (miR-21; concentration of anti-miR compound 50.0 (unit not given)): 11.00 fold change |
| UECEAFAFCFAFUFCFAFGFUFCEUEGEAFUFAFAFGFCFUEAE (antisense TCAACATCAGTCTGATAAGCTA; listed as DNA, chemistry not fully specified) [Compound 25919, reference compound] | 59.9 | 72.0 | 108.7 and 103.9 and 29.5 and 95.8 and 35.5 and 42.2 and 64.1 and 96.4 | 87.5 and 72.3 and 14.3 and 104.4 and 27.1 and 34.9 and 56.1 and 82.8 | 48.3 | 34.9 | 75.5 and 50.4 and 49.2 and 43.2 and 41.7 and 53.6 and 44.8 and 28.0 | 40.2 and 43.1 and 34.5 and 35.7 and 41.1 and 36.9 and 24.5 and 22.9 | 84 | 114 | 171 | 202 | 40 | 53 |  |

From US20120270928A1, “MICRORNA COMPOUNDS AND METHODS FOR MODULATING MIR-21 ACTIVITY” (REGULUS THERAPEUTICS INC., priority 2011, published 2012)
